ChEMBL document CHEMBL2074306, “Transport of bile acids in multidrug-resistance-protein 3-overexpressing cells co-transfected with the ileal Na+-dependent bile-acid transporter” (Biochem J, 2003)

Tests used:
Type in all cases: functional, cell membranes
Parameters in all cases: scale not given: the % may be the effect or the level left
[1] = biological target: Multidrug resistance associated protein (Homo sapiens) (UniProt Q96QA9); assay: TP_TRANSPORTER: inhibition of Etoposide glucuronide uptake (Etoposide glucuronide: 0.094 uM, Lithocholic acid-sulfate: 20 uM) by Lithocholate-3-sulfate at a concentration of 20uM in membrane vesicle from MRP3-expressing Sf9 cells
Chain of Multidrug resistance associated protein (Homo sapiens) (Q96QA9 as listed by the source): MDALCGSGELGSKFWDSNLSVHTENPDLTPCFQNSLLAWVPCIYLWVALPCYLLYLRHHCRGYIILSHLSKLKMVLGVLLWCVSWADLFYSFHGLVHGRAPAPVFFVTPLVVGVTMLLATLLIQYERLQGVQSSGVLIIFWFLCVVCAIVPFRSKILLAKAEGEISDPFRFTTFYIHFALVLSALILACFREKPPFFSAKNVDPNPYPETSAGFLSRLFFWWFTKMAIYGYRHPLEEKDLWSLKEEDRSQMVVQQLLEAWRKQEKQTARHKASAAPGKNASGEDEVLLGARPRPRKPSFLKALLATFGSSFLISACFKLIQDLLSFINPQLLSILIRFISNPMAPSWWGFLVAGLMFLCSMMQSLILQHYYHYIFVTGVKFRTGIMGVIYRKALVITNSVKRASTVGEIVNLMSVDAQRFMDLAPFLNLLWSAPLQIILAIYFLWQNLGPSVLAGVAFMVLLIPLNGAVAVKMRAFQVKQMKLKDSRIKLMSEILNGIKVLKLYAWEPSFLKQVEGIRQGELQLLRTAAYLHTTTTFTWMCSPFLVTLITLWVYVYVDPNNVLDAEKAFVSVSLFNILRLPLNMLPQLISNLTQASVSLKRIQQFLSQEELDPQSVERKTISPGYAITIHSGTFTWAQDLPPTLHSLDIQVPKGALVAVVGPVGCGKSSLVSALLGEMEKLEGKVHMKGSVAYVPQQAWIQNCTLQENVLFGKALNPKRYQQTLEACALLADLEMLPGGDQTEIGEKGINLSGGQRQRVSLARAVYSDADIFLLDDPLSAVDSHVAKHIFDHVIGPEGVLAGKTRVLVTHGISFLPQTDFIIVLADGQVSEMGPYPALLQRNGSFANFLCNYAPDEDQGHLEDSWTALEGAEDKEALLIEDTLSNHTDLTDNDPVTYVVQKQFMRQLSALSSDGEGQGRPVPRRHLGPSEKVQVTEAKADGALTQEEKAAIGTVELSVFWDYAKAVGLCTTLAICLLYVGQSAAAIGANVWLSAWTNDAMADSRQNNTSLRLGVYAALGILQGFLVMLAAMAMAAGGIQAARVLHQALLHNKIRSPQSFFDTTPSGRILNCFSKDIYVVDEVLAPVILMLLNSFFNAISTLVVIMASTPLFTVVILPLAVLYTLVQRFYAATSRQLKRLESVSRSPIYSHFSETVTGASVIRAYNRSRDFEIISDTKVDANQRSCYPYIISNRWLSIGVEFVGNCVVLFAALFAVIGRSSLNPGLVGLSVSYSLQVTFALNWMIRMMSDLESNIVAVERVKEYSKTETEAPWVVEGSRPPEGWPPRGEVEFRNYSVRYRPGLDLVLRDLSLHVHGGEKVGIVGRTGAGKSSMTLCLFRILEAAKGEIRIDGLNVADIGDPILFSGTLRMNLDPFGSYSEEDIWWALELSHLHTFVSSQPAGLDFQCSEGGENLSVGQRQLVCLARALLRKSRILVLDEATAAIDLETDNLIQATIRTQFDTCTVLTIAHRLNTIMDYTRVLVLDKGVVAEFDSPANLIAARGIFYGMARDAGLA

[2] = biological target: Multidrug resistance associated protein (Homo sapiens) (UniProt Q96QA9); assay: TP_TRANSPORTER: inhibition of Etoposide glucuronide uptake (Etoposide glucuronide: 0.094 uM, LC-S: 20.0 uM) in membrane vesicles from MRP3-expressing Sf9 cells; conditions: Membrane vesicle
[3] = biological target: Multidrug resistance associated protein (Homo sapiens) (UniProt Q96QA9); assay: TP_TRANSPORTER: inhibition of Etoposide glucuronide uptake (Etoposide glucuronide: 0.094 uM, GLC-S: 20.0 uM) in membrane vesicles from MRP3-expressing Sf9 cells; conditions: Membrane vesicle
[4] = biological target: Multidrug resistance associated protein (Homo sapiens) (UniProt Q96QA9); assay: TP_TRANSPORTER: inhibition of Etoposide glucuronide uptake (Etoposide glucuronide: 0.094 uM, […] uM) by Glycolithocholate-3-sulfate at a concentration of 20uM in membrane vesicle from MRP3-expressing Sf9 cells
[5] = biological target: Multidrug resistance associated protein (Homo sapiens) (UniProt Q96QA9); assay: TP_TRANSPORTER: inhibition of Etoposide glucuronide uptake (Etoposide glucuronide: 0.094 uM, MK571: 20 uM) by MK-571 at a concentration of 20uM in membrane vesicle from MRP3-expressing Sf9 cells
[6] = biological target: Multidrug resistance associated protein (Homo sapiens) (UniProt Q96QA9); assay: TP_TRANSPORTER: inhibition of Etoposide glucuronide uptake (Etoposide glucuronide: 0.094 uM, MK-571: 20.0 uM) in membrane vesicles from MRP3-expressing Sf9 cells; conditions: Membrane vesicle
[7] = biological target: Multidrug resistance associated protein (Homo sapiens) (UniProt Q96QA9); assay: TP_TRANSPORTER: inhibition of Etoposide glucuronide uptake (Etoposide glucuronide: 0.094 uM, TDCA: 500.0 uM) in membrane vesicles from MRP3-expressing Sf9 cells; conditions: Membrane vesicle
[8] = biological target: Multidrug resistance associated protein (Homo sapiens) (UniProt Q96QA9); assay: TP_TRANSPORTER: inhibition of Etoposide glucuronide uptake (Etoposide glucuronide: 0.094 uM, TDCA: 500 uM) by Taurodeoxycholate at a concentration of 500uM in membrane vesicle from MRP3-expressing Sf9 cells
[9] = biological target: Multidrug resistance associated protein (Homo sapiens) (UniProt Q96QA9); assay: TP_TRANSPORTER: inhibition of Etoposide glucuronide uptake (Etoposide glucuronide: 0.094 uM, TCDC: 500 uM) by Taurochenodeoxycholate at a concentration of 500uM in membrane vesicle from MRP3-expressing Sf9 cells
[10] = biological target: Multidrug resistance associated protein (Homo sapiens) (UniProt Q96QA9); assay: TP_TRANSPORTER: inhibition of Etoposide glucuronide uptake (Etoposide glucuronide: 0.094 uM, TCDC: 500.0 uM) in membrane vesicles from MRP3-expressing Sf9 cells; conditions: Membrane vesicle
[11] = biological target: Multidrug resistance associated protein (Homo sapiens) (UniProt Q96QA9); assay: TP_TRANSPORTER: inhibition of Etoposide glucuronide uptake (Etoposide glucuronide: 0.094 uM, GC: 500 uM) by Glycocholate at a concentration of 500uM in membrane vesicle from MRP3-expressing Sf9 cells
[12] = biological target: Multidrug resistance associated protein (Homo sapiens) (UniProt Q96QA9); assay: TP_TRANSPORTER: inhibition of Etoposide glucuronide uptake (Etoposide glucuronide: 0.094 uM, GC: 500.0 uM) in membrane vesicles from MRP3-expressing Sf9 cells; conditions: Membrane vesicle
[13] = biological target: Multidrug resistance associated protein (Homo sapiens) (UniProt Q96QA9); assay: TP_TRANSPORTER: inhibition of Etoposide glucuronide uptake (Etoposide glucuronide: 0.094 uM, TLCAS: 50 uM) by Taurolithocholate-3-sulfate at a concentration of 50uM in membrane vesicle from MRP3-expressing Sf9 cells
[14] = biological target: Multidrug resistance associated protein (Homo sapiens) (UniProt Q96QA9); assay: TP_TRANSPORTER: inhibition of Etoposide glucuronide uptake (Etoposide glucuronide: 0.094 uM, TLC-S: 50.0 uM) in membrane vesicles from MRP3-expressing Sf9 cells; conditions: Membrane vesicle

Question: For C[C@H](CCC(=O)O)[C@H]1CC[C@H]2[C@@H]3CC[C@@H]4C[C@H](OS(=O)(=O)O)CC[C@]4(C)[C@H]3CC[C@]12C, which Activity [1] is on record?
Answer: 24%

Question: What about the Activity [2] of the same compound?
Answer: 24%

Question: C[C@H](CCC(=O)NCC(=O)O)[C@H]1CC[C@H]2[C@@H]3CC[C@@H]4C[C@H](OS(=O)(=O)O)CC[C@]4(C)[C@H]3CC[C@]12C was tested. Which Activity [3] did it give?
Answer: 29%

Question: And the Activity [4]?
Answer: 29%

Question: Which Activity [5] does the source give for CN(C)C(=O)CCSC(SCCC(=O)O)c1cccc(/C=C/c2ccc3ccc(Cl)cc3n2)c1 (centres undefined) here?
Answer: 40%

Question: What about the Activity [6] of the same compound?
Answer: 40%

Question: C[C@H](CCC(=O)NCCS(=O)(=O)O)[C@H]1CC[C@H]2[C@@H]3CC[C@@H]4C[C@H](O)CC[C@]4(C)[C@H]3C[C@H](O)[C@]12C was tested. Which Activity [7] did it give?
Answer: 9%

Question: What about the Activity [8] of the same compound?
Answer: 9%

Question: Which results are given for C[C@H](CCC(=O)NCCS(=O)(=O)O)[C@H]1CC[C@H]2[C@@H]3[C@H](O)C[C@@H]4C[C@H](O)CC[C@]4(C)[C@H]3CC[C@]12C?
Answer: Activity [9]: 6%; Activity [10]: 6%

Question: What does the source list for C[C@H](CCC(=O)NCC(=O)O)[C@H]1CC[C@H]2[C@@H]3[C@H](O)C[C@@H]4C[C@H](O)CC[C@]4(C)[C@H]3C[C@H](O)[C@]12C?
Answer: Activity [11]: 30%; Activity [12]: 30%

Question: Which results are given for C[C@H](CCC(=O)NCCS(=O)(=O)O)C1CC[C@H]2[C@@H]3CC[C@@H]4C[C@H](OS(=O)(=O)O)CC[C@]4(C)[C@H]3CC[C@]12C (some centres undefined)?
Answer: Activity [13]: 8%; Activity [14]: 8%
